Data reported in paper PMC4047118, “BM-1197: A Novel and Specific Bcl-2/Bcl-xL Inhibitor Inducing Complete and Long-Lasting Tumor Regression In Vivo” (PLoS ONE, 2014).
Where “and” joins values, the source holds several entries; their conditions need not be identical. Identical values can stand only once.

Legend:
Mcl-1 = Mcl-1 (Homo sapiens, UniProt Q07820); assay: fluorescence-polarization (FP) binding assay, Mcl-1
Description: BM-1197 ( Fig 1 ), was synthesized in a similar manner as described for BM-1074 [16]. We evaluated the binding affinities of BM-1197 to Bcl-2, Bcl-xL and Mcl-1 proteins using our optimized fluorescence-polarization (FP) binding assays. […] Of note, the binding affinities of these compounds to Bcl-2 and Bcl-xL proteins are close to the lower limits of the assay and their precise Ki values could not be determined accurately using our competitive, FP binding assays.

Bcl-2 = Bcl-2 (Homo sapiens, UniProt P10415); assay: fluorescence-polarization (FP) binding assay, Bcl-2; details: means ± SD (n≥3)
Description: (§1) BM-1197 ( Fig 1 ), was synthesized in a similar manner as described for BM-1074 [16]. We evaluated the binding affinities of BM-1197 to Bcl-2, Bcl-xL and Mcl-1 proteins using our optimized fluorescence-polarization (FP) binding assays.
(§2) Data are expressed as means ± SD (n≥3).

DMS79 = assay: SCLC cell growth inhibition (WST-8), DMS79; assay type: cell-based; details: Homo sapiens, DMS-79; 96-h incubation, means ± SD (n = 3–6)
Method: (§3) All the SCLC cell lines were purchased from American Type Culture Collection (Manassas, VA) and cultured as recommended. All these cell lines were passaged fewer than 6 months after purchase. MCL1 knockout (MCL1^−/−) MEF cells were kindly provided by Dr. David Huang (The Walter and Eliza Hall Institute of Medical Research, Melbourne, Australia). Cell growth inhibition was evaluated by means of a WST-8 assay (Dojindo, Rockville, MD) as described previously. Mitochondrial membrane potential was determined by JC-1 staining using a JC-1 Mitochondrial Membrane Potential Assay kit (Cayman). Apoptosis analysis was performed using an Annexin V/propidium iodide (PI) apoptosis detection kit (Roche Applied Sciences, Indianapolis, IN).

H187 = assay: SCLC cell growth inhibition (WST-8), H187; assay type: cell-based; details: Homo sapiens, NCI-H187; 96-h incubation, means ± SD (n = 3–6)
Method: as §3

platelets = assay: platelet count / on-target platelet toxicity in mice; assay type: in vivo
Method: BM-1197 was administered by IV bolus injected into the tail vein of the mice. Mice were euthanized at different time points with CO2, then ∼0.2 ml of blood was drawn by cardiac puncture using an EDTA treated syringe, transferred to an EDTA treated tube and sent immediately for a Complete Blood Count. The samples were read at the University of Michigan Animal Diagnostic Laboratory on a HEMAVET 950FS Hematology Analyzer.
Figure 11 BM-1197 decreases platelet count in mice. BM-1197 was administered by IV bolus injected into the tail vein. At the indicated time points the mice were euthanized and blood was drawn for complete blood count. Data are mean ± SEM (n = 3).

H1417 = assay: SCLC cell growth inhibition (WST-8), H1417; assay type: cell-based; details: Homo sapiens, NCI-H1417; 96-h incubation, means ± SD (n = 3–6)
Method: as §3

Bcl-xL = Bcl-xL (Homo sapiens, UniProt Q07817); assay: fluorescence-polarization (FP) binding assay, Bcl-xL; details: means ± SD (n≥3)
Description: as §1, §2

H889 = assay: SCLC cell growth inhibition (WST-8), H889; assay type: cell-based; details: Homo sapiens, NCI-H889; 96-h incubation, means ± SD (n = 3–6)
Method: as §3

H1963 xenograft tumors = assay: H1963 subcutaneous xenograft model; assay type: in vivo, SCID mice
Method: Tumor sizes were measured 2–3 times per week. Tumor growth inhibition was calculated by using the formula: 100% (mean volume of controls - mean volume of treated)/mean volume of controls.
Figure 10 In vivo antitumor activity of BM-1197. […] Data shown are mean ± SEM for 6–8 mice. (E & F) SCID mice bearing H146 or H1963 cells were treated with 10 mg/kg of BM-1197 IV for the indicated times. Tumor lysates were analyzed by immunoblotting.

H1963 = assay: SCLC cell growth inhibition (WST-8), H1963; assay type: cell-based; details: Homo sapiens, NCI-H1963; 96-h incubation, means ± SD (n = 3–6)
Method: as §3

Chain of Bcl-2 (P10415 whole entry): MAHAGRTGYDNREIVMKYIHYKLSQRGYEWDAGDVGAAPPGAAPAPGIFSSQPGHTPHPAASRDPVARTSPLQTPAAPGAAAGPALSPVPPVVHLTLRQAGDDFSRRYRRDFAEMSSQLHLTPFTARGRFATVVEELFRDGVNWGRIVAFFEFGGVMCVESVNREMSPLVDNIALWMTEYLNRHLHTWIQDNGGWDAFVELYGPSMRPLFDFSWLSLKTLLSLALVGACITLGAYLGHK
Chain of Bcl-xL (Q07817 whole entry): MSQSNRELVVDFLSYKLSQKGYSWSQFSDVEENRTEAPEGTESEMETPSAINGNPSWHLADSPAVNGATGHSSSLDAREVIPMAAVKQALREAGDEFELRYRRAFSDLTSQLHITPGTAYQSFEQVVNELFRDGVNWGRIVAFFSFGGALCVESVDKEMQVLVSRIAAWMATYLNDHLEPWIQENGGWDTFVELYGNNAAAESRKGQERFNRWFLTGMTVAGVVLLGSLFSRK
Chain of Mcl-1 (Q07820 whole entry): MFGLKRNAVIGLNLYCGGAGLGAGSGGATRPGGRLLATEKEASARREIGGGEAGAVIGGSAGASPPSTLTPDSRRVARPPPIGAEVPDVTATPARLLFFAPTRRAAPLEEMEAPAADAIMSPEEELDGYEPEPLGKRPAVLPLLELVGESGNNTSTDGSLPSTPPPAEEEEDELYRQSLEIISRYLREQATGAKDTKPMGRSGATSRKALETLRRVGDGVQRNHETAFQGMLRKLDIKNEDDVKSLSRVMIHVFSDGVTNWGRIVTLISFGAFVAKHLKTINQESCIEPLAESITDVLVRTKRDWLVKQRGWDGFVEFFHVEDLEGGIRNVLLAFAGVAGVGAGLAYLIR

SMILES: Cc1c(S(C)(=O)=O)c(-c2cc(F)cc(N3CCN(c4ccc(NS(=O)(=O)c5ccc(N[C@H](CCN6CCC(O)CC6)CSc6ccccc6)c(S(=O)(=O)C(F)(F)F)c5)cc4)CC3)c2)c(-c2ccc(Cl)cc2)n1C(C)C [BM-1197]
- binding to Mcl-1 (Mcl-1; at 2 µM): fails to bind
- selectivity over Mcl-1 (Mcl-1; versus Bcl-2 and Bcl-xL): > 1,000 fold
- IC50 (Bcl-2): 3.5 ± 0.7 nM
- Ki (Bcl-2): < 1 nM and 0.7 nM
- IC50 (DMS79): 54 ± 30 nM
- IC50 (H187): 31 ± 4 nM
- lowest platelet count (platelets; 15 mg/kg IV bolus, at 24 h): 96000 µL⁻¹
- bleeding (platelets; repeated daily or weekly intravenous doses in efficacy experiments): did not observe any bleeding
- IC50 (H1417): 3 ± 1 nM
- IC50 (Bcl-xL): 5.2 ± 0.6 nM
- Ki (Bcl-xL): < 1 nM
- IC50 (H889): 82 ± 20 nM
- decrease of mean tumor volume seven days after initiation of treatment (H1963 xenograft tumors; 10 mg/kg daily IV dosing): > 90%
- mice with tumor regrown 40 days after the last dose (H1963 xenograft tumors; 10 mg/kg daily IV dosing): 1 of 6
- mice with complete tumor regression (H1963 xenograft tumors; 10 mg/kg daily IV dosing (5 days per week), 6 mice): 6 mice
- mice tumor free for 61 days after the last dose (H1963 xenograft tumors; 10 mg/kg daily IV dosing, 6 mice): 5 mice
- weight loss (H1963 xenograft tumors; both daily and weekly dose-schedules): < 10%
- mice with palpable tumor on day 59 (H1963 xenograft tumors; daily dosing at 10 mg/kg): one of six mice
- apoptosis biomarkers in H1963 tumors (H1963 xenograft tumors; single dose 10 mg/kg IV, as early as 3 h, persisting at least 24 hr): rapid and robust caspase-3 activation and PARP cleavage
- duration of complete tumor regression in 5 out of 6 mice (H1963 xenograft tumors; weekly dosing (15 mg/kg)): 38 days
- duration of complete tumor regression in all mice (H1963 xenograft tumors; weekly dosing (15 mg/kg)): 17 days
- reduction of mean tumor volume after a single dose (H1963 xenograft tumors; weekly dosing (15 mg/kg)): 66%
- tumor response after two doses (H1963 xenograft tumors; weekly dosing (15 mg/kg)): complete tumor regression
- mice with re-occurring tumor on day 59 (H1963 xenograft tumors; weekly dosing at 15 mg/kg): all mice
- IC50 (H1963): 5 ± 2 nM
